Patent publication US8530663B2, “1-(2-phenoxymethylheteroaryl)piperidine and piperazine compounds” (Theravance, Inc., priority 2010, dated 2013)

Experiments:
[1] = biological target: T1, hSERT (Homo sapiens, UniProt P31645); assay: hSERT membrane radioligand binding assay (3H-citalopram); conditions: hSERT membranes, 1.0 nM 3H-citalopram; for Ki: read-out: SERT pKi (converted)
T1 construct: expressed in transfected cells; host or cells: HEK-293
Protocol: (§1) Membrane radioligand binding assays were used to measure inhibition of labeled ligand (^3H-citalopram or ^3H-nisoxetine or ^3H-WIN35428) binding to membranes prepared from cells expressing the respective human recombinant transporter (hSERT or hNET or hDAT) in order to determine the pKi values of test compounds at the transporters.
(§2) Recombinant human embryonic kidney (HEK-293) derived cell lines stably transfected with hSERT or hNET, respectively, were grown in DMEM medium supplemented with 10% dialyzed FBS (for hSERT) or FBS (for hNET), 100 μg/ml penicillin, 100 μg/ml streptomycin, 2 mM L-glutamine and 250 μg/ml of the aminoglycoside antibiotic G418, in a 5% CO2 humidified incubator at 37° C. When cultures reached 80% confluence, the cells were washed thoroughly in PBS (without Ca^2+ and Mg^2+) and lifted with 5 mM EDTA in PBS. Cells were pelleted by centrifugation, resuspended in lysis buffer (10 mM Tris-HCl, pH7.5 containing 1 mM EDTA), homogenized, pelleted by centrifugation, then resuspended in 50 mM Tris-HCl, pH 7.5 and 10% sucrose at 4° C. Protein concentration of the membrane suspension was determined using a Bio-Rad Bradford Protein Assay kit. Membranes were snap frozen and stored at −80° C. Chinese hamster ovary membranes expressing hDAT (CHO-DAT) were purchased from PerkinElmer and stored at −80° C.
(§3) Binding assays were performed in a 96-well assay plate in a total volume of 200 μL assay buffer (50 mM Tris-HCl, 120 mM NaCl, 5 mM KCl, pH 7.4) with 0.5, 1, and 3 μg membrane protein, for SERT, NET and DAT, respectively.
(§4) Stock solutions (10 mM in DMSO) of test compound were prepared and serial dilutions made using Dilution Buffer (50 mM Tris-HCl, 120 mM NaCl, 5 mM KCl, pH 7.4, 0.1% BSA, 400 μM ascorbic acid).
(§5) Following a 60 minute incubation at 22° C. (or a period sufficient to reach equilibrium), the membranes were harvested by rapid filtration over a 96-well UniFilter GF/B plate, pretreated with 0.3% polyethyleneimine, and washed 6 times with 300 μl wash buffer (50 mM Tris-HCl, 0.9% NaCl, pH 7.5 at 4° C.). Plates were dried overnight at room temperature, ˜45 μl of MicroScint™-20 (Perkin Elmer) added and bound radioactivity quantitated via liquid scintillation spectroscopy. Inhibition curves and saturation isotherms were analyzed using GraphPad Prism Software package (GraphPad Software, Inc., San Diego, Calif.). IC50 values were generated from concentration response curves using the Sigmoidal Dose Response (variable slope) algorithm in Prism GraphPad. Kd and Bmax values for the radioligand were generated from saturation isotherms using the Saturation Binding Global Fit algorithm in Prism GraphPad. pKi (negative decadic logarithm of Ki) values for test compounds were calculated from the best-fit IC50 values, and the Kd value of the radioligand, using the Cheng-Prusoff equation (Cheng & Prusoff (1973) Biochem. Pharmacol. 22(23):3099-3108): Ki=IC50/(1+[L]/Kd), where [L]=concentration radioligand.

[2] = biological target: T2, hNET (Homo sapiens, UniProt P23975); assay: hNET membrane radioligand binding assay (3H-nisoxetine); conditions: hNET membranes, 1.0 nM 3H-nisoxetine; for Ki: read-out: NET pKi (converted)
T2 construct: expressed in transfected cells; host or cells: HEK-293
Protocol: as §1, §2, §3, §4, §5

[3] = biological target: T1, hSERT; assay: fluorescence-based serotonin reuptake assay (Tsuruda et al. 2010; data with asterisk); format: cell-based; conditions: serotonin reuptake inhibition, fluorescence-based assay (data indicated by an asterisk); read-out: SERT pIC50 (converted)
[4] = biological target: T2, hNET; assay: fluorescence-based norepinephrine reuptake assay (Tsuruda et al. 2010; data with asterisk); format: cell-based; conditions: norepinephrine reuptake inhibition, fluorescence-based assay (data indicated by an asterisk); read-out: NET pIC50 (converted)

T1 sequence (P31645 whole entry): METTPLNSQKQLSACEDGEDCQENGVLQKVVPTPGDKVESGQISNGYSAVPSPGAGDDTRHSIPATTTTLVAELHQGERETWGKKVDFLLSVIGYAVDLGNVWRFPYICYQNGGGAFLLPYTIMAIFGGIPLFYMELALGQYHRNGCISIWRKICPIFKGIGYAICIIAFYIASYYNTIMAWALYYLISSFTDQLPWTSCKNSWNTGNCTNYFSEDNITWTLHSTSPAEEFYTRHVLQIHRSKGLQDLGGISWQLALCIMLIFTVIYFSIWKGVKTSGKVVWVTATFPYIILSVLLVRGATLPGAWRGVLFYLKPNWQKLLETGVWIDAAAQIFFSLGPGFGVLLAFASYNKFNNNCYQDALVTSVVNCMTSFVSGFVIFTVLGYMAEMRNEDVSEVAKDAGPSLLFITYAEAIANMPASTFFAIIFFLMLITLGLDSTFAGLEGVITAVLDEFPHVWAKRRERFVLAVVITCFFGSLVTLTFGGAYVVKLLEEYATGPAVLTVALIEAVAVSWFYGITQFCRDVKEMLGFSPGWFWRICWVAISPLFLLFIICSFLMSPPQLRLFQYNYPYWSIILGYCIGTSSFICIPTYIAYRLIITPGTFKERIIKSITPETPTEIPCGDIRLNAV
T2 sequence (P23975 whole entry): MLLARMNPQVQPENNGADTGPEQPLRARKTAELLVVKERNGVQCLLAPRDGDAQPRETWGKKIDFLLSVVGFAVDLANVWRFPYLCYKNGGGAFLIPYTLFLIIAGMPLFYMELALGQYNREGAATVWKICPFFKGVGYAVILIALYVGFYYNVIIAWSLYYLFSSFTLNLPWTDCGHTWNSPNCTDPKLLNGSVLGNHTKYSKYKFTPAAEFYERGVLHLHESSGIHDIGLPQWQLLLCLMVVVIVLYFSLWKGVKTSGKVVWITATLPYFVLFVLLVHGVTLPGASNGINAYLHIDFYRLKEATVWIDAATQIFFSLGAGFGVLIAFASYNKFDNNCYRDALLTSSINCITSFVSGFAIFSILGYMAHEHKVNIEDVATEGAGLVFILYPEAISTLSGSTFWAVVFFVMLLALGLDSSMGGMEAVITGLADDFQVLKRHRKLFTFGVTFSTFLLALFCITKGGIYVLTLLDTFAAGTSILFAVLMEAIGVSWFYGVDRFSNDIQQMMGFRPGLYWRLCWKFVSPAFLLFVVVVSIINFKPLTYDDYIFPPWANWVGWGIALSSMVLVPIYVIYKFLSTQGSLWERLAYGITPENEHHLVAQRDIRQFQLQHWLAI

## Fc1cc(F)c(OCc2ncccc2C2CCNCC2)c(F)c1 [Example 1, 2-(2,4,6-Trifluorophenoxymethyl)-1′,2′,3′,4′,5′,6′-hexahydro[3,4]bipyridinyl]
[1]
  Ki: ≤ 100 nM
[2]
  Ki: ≤ 100 nM

## c1ccc(OCc2ncccc2C2CCNCC2)cc1 [Example 2-1]
[1]
  SERT pKi: ≧5.0
[2]
  NET pKi: ≧6.0

## Fc1ccccc1OCc1ncccc1C1CCNCC1 [Example 2-2]
[1]
  SERT pKi: ≧6.0
[2]
  NET pKi: ≧7.0

## Clc1cccc(OCc2ncccc2C2CCNCC2)c1 [Example 2-3]
[1]
  SERT pKi: ≧7.0
[2]
  NET pKi: ≧5.0

## Fc1cccc(F)c1OCc1ncccc1C1CCNCC1 [Example 2-4]
[1]
  SERT pKi: ≧6.0
[2]
  NET pKi: ≧7.0

## Fc1cccc(Cl)c1OCc1ncccc1C1CCNCC1 [Example 2-5]
[1]
  SERT pKi: ≧7.0
[2]
  NET pKi: ≧7.0

## Clc1cccc(Cl)c1OCc1ncccc1C1CCNCC1 [Example 2-6]
[1]
  SERT pKi: ≧7.0
[2]
  NET pKi: ≧7.0

## Fc1ccc(F)c(OCc2ncccc2C2CCNCC2)c1F [Example 2-7]
[1]
  SERT pKi: ≧7.0
[2]
  NET pKi: ≧6.0

## Fc1cc(Cl)cc(F)c1OCc1ncccc1C1CCNCC1 [Example 2-8]
[1]
  SERT pKi: ≧7.0
[2]
  NET pKi: ≧6.0

## Fc1cccc(F)c1OCc1cnccc1C1CCNCC1 [Example 5, 3′-(2,6-Difluorophenoxymethyl)-1,2,3,4,5,6-hexahydro[4,4′]bipyridinyl]
[1]
  Ki: ≤ 100 nM
[2]
  Ki: ≤ 100 nM

## c1ccc(OCc2cnccc2C2CCNCC2)cc1 [Example 6-1]
[1]
  SERT pKi: ≧6.0
[2]
  NET pKi: ≧5.0

## Fc1ccccc1OCc1cnccc1C1CCNCC1 [Example 6-2]
[1]
  SERT pKi: ≧7.0
[2]
  NET pKi: ≧6.0

## Clc1cccc(OCc2cnccc2C2CCNCC2)c1 [Example 6-3]
[1]
  SERT pKi: ≧7.0
[2]
  NET pKi: ≧5.0

## Fc1cccc(Cl)c1OCc1cnccc1C1CCNCC1 [Example 6-4]
[1]
  SERT pKi: ≧7.0
[2]
  NET pKi: ≧7.0

## Clc1cccc(Cl)c1OCc1cnccc1C1CCNCC1 [Example 6-5]
[1]
  SERT pKi: ≧7.0
[2]
  NET pKi: ≧7.0

## Fc1ccc(F)c(OCc2cnccc2C2CCNCC2)c1F [Example 6-6]
[1]
  SERT pKi: ≧7.0
[2]
  NET pKi: ≧6.0

## Fc1cc(F)c(OCc2cnccc2C2CCNCC2)c(F)c1 [Example 6-7]
[1]
  SERT pKi: ≧7.0
[2]
  NET pKi: ≧7.0

## Fc1cc(Cl)cc(F)c1OCc1cnccc1C1CCNCC1 [Example 6-8]
[1]
  SERT pKi: ≧7.0
[2]
  NET pKi: ≧6.0

## Fc1ccc(F)c(OCc2cnccc2C2CCNCC2)c1Cl [Example 6-9]
[1]
  SERT pKi: ≧7.0
[2]
  NET pKi: ≧7.0

## c1ccc(OCc2ccncc2C2CCNCC2)cc1 [Example 10-1]
[1]
  SERT pKi: ≧6.0
[2]
  NET pKi: ≧6.0

## Fc1ccccc1OCc1ccncc1C1CCNCC1 [Example 10-2]
[1]
  SERT pKi: ≧7.0
[2]
  NET pKi: ≧7.0

## Fc1cccc(F)c1OCc1ccncc1C1CCNCC1 [Example 10-3]
[1]
  SERT pKi: ≧7.0
[2]
  NET pKi: ≧7.0

## Clc1cccc(Cl)c1OCc1ccncc1C1CCNCC1 [Example 10-5]
[1]
  SERT pKi: ≧7.0
[2]
  NET pKi: ≧7.0

## Clc1cccc(OCc2ccncc2C2CCNCC2)c1 [Example 10-6]
[1]
  SERT pKi: ≧7.0
[2]
  NET pKi: ≧6.0

## Fc1ccc(F)c(OCc2ccncc2C2CCNCC2)c1F [Example 10-7]
[1]
  SERT pKi: ≧7.0
[2]
  NET pKi: ≧7.0

## Fc1cc(Cl)cc(F)c1OCc1ccncc1C1CCNCC1 [Example 10-8]
[1]
  SERT pKi: ≧7.0
[2]
  NET pKi: ≧7.0

## Fc1ccc(F)c(OCc2ccncc2C2CCNCC2)c1Cl [Example 10-9]
[1]
  SERT pKi: ≧7.0
[2]
  NET pKi: ≧7.0

## c1ccc(OCc2cccnc2C2CCNCC2)cc1 [Example 14-1]
[1]
  SERT pKi: ≧6.0
[2]
  NET pKi: ≧6.0

## Fc1ccccc1OCc1cccnc1C1CCNCC1 [Example 14-2]
[1]
  SERT pKi: ≧6.0
[2]
  NET pKi: ≧7.0

## Clc1cccc(OCc2cccnc2C2CCNCC2)c1 [Example 14-3]
[1]
  SERT pKi: ≧7.0
[2]
  NET pKi: ≧5.0

## Fc1cccc(F)c1OCc1cccnc1C1CCNCC1 [Example 14-4]
[1]
  SERT pKi: ≧6.0
[2]
  NET pKi: ≧7.0

## Fc1cccc(Cl)c1OCc1cccnc1C1CCNCC1 [Example 14-5]
[1]
  SERT pKi: ≧7.0
[2]
  NET pKi: ≧7.0

## Clc1cccc(Cl)c1OCc1cccnc1C1CCNCC1 [Example 14-6]
[1]
  SERT pKi: ≧7.0
[2]
  NET pKi: ≧7.0

## Fc1ccc(F)c(OCc2cccnc2C2CCNCC2)c1F [Example 14-7]
[1]
  SERT pKi: ≧7.0
[2]
  NET pKi: ≧7.0

## Fc1cc(Cl)cc(F)c1OCc1cccnc1C1CCNCC1 [Example 14-8]
[1]
  SERT pKi: ≧7.0
[2]
  NET pKi: ≧7.0

## c1ccc(OCc2occc2C2CCNCC2)cc1 [Example 17, 4-(2-Phenoxymethylfuran-3-yl)piperidine]
[3]
  IC50: ≤ 100 nM
[4]
  IC50: ≤ 100 nM

## Clc1cccc(Cl)c1OCc1sccc1C1CCNCC1 [Example 25-1]
[1]
  SERT pKi: ≧7.0
[2]
  NET pKi: ≧5.0

## Fc1cccc(F)c1OCc1sccc1C1CCNCC1 [Example 25-2]
[1]
  SERT pKi: ≧6.0
[2]
  NET pKi: ≧6.0

## Fc1cccc(Cl)c1OCc1sccc1C1CCNCC1 [Example 25-3]
[1]
  SERT pKi: ≧7.0
[2]
  NET pKi: ≧5.0

## Fc1ccc(F)c(OCc2sccc2C2CCNCC2)c1F [Example 25-4]
[1]
  SERT pKi: ≧6.0
[2]
  NET pKi: ≧6.0

## Fc1ccccc1OCc1cscc1C1CCNCC1 [Example 28-1]
[1]
  SERT pKi: ≧7.0
[2]
  NET pKi: ≧7.0

## Clc1cccc(OCc2cscc2C2CCNCC2)c1 [Example 28-2]
[1]
  SERT pKi: ≧7.0
[2]
  NET pKi: ≧6.0

## Fc1cc(Cl)cc(F)c1OCc1cscc1C1CCNCC1 [Example 28-4]
[1]
  SERT pKi: ≧7.0
[2]
  NET pKi: ≧7.0

## Fc1ccc(F)c(OCc2cscc2C2CCNCC2)c1Cl [Example 28-5]
[1]
  SERT pKi: ≧7.0
[2]
  NET pKi: ≧7.0

## c1ccc(OCc2ccsc2C2CCNCC2)cc1 [Example 30, 4-(3-Phenoxymethylthiophen-2-yl)piperidine]
[1]
  Ki: ≤ 100 nM
[2]
  Ki: ≤ 100 nM

## Fc1ccccc1OCc1ccsc1C1CCNCC1 [Example 31-1]
[1]
  SERT pKi: ≧6.0
[2]
  NET pKi: ≧7.0

## Fc1cc(Cl)cc(F)c1OCc1ccsc1C1CCNCC1 [Example 31-4]
[1]
  SERT pKi: ≧7.0
[2]
  NET pKi: ≧7.0
